Literature values, collected in patent publication US20210145768A1, “MODULATING IMMUNE RESPONSE VIA TARGETING OF OLFACTORY RECEPTOR ACTIVITY” (La Jolla Institute for Allergy and Immunology, priority 2018, published 2021).

System: olfactory receptors
Settings: odorant (agonist) : olfactory receptor pair; cited from earlier work

Row | SMILES | Olfactory receptor agonized by the odorant (agonist)
1 | CC1=CCC(CCC(C)CO)C1(C)C (stereo not drawn) [Brahmanol] | OR2AT4
2 | CCCCCOC(=O)CCC [amyl butyrate] | OR2AG1
3 | O=C(O)CCCCCCCC(=O)O [azelaic acid] | Olfr544 (human unknown)
